Measurements taken from patent US12509460B2 (Skyhawk Therapeutics, Inc., priority 2019, dated 2025).
Like-named read-outs stand apart in the source and are kept apart here.

Experiments:
[1] = system: SMN protein in spinal muscular atrophy (SMA) patient fibroblasts (GM03813, Coriell); test: SMN protein assay, Mesoscale Discovery (MSD); format: cell-based, human; settings: read-out: SMN2 protein EC50
Summary of the method: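 SMA patient fibroblasts (GM03813) seeded at 7000 cells/well and exposed to compound at 2.5 μM to 0.6 nM for 48 hours. Lysates assayed for SMN by MSD immunoassay, with absolute SMN amount calculated from a per-plate SMN standard curve (1 μg/ml to 19.5 pg/ml).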

[2] = system: SMN FL and SMN Δ7 in spinal muscular atrophy (SMA) patient fibroblasts (GM03813, Coriell); test: Quantitative splicing assay (SMN), qPCR; format: cell-based, human; settings: Homo sapiens, Fibroblast, 24 h, read-out: SMN2 Splicing FL EC50
Method: Spinal muscular atrophy (SMA) patient fibroblasts (GM03813, Coriell) are plated in 96-well plates at 50,000 cells/well. […] Treated cells are lysed and cDNA synthesized using the Fast Advanced Cells-to-Ct kit (Thermofisher A35378) according to the manufacturer's instructions. 2 μL of each cDNA are used in qPCR reactions. […] Reactions are run in a Quant Studio 6 qPCR instrument with default settings.

[3] = system: MDR1 (P-gp); test: Blood-brain-barrier (BBB) penetration potential via MDCK-MDR1 permeability assay; settings: dog; for Papp A→B at 120 min, 5 μM: MDCK-MDR1, pH 7.4, MDCK-MDR1: Papp A-B; for Papp B→A at 120 min, 5 μM: MDCK-MDR1, pH 7.4, MDCK-MDR1: Papp B-A
[4] = system: MDR1; test: as above; settings: dog, MDCK-MDR1, pH 7.4, MDCK-MDR1: Efflux
[5] = system: MDR1-MDCK cell monolayers; test: as above
[6] = system: mHTT protein in GM04724 (CAG 70/20) Huntington's disease patient lymphoblast cells; test: mHTT protein assay, 2B7-MW1 assay via Mesoscale Discovery (MSD); format: cell-based, human
Summary of the method: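 Patient lymphoblasts treated 48 h with compound from 10 μM to 0.6 nM. mHTT quantified by MSD 2B7-MW1 immunoassay, whose signal depends on polyQ expansion and HTT size. Viability measured on a replicate plate by CellTiter Glo.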

[7] = Quantitative splicing assay (HTT), qPCR; format: cell-based, human; settings: Homo sapiens, GM04724, 24 h, GM04724 lymphoblasts, read-out: HTT Splicing: E49-50 EC50
Summary of the method: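 Patient lymphoblasts (50,000 cells/well) dosed immediately after plating for 24 h at 2.5 uM to 0.15 nM in 0.1% DMSO. Lysed, cDNA made directly from cells, and inclusion of the intron 49 cryptic exon quantified by TaqMan qPCR.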

[8] = SMA patient fibroblasts GM03813, 48 hours, MSD
[9] = SMA patient fibroblasts GM03813, 24 h, qPCR
[10] = GM04724 Huntington's disease patient lymphoblasts

## CN(c1ccc(-c2cc3c(=O)n(C)cnc3cc2O)nn1)[C@@H]1C[C@H]2CC[C@H](N2)[C@@H]1F [Compound 85A, 6-(6-(((1S,2S,3R,5R)-2-fluoro-8-azabicyclo[3.2.1]octan-3-yl)(methyl)amino)pyridazin-3-yl)-7-hydroxy-3-methylquinazolin-4(3H)-one]
[1]; [8]
  EC50: 0.01 to 15 nM
[2]; [9]
  EC50: 16 to 50 nM
[3]; A-B direction
  Papp A→B at 120 min, 5 μM: 0.67 ×10⁻⁶ cm/s
[3]; B-A direction
  Papp B→A at 120 min, 5 μM: 49.2 ×10⁻⁶ cm/s
[4]; efflux ratio
  efflux ratio at 120 min, 5 μM: 74
[5]; A-B direction
  MDCK-MDR1: % Recov A-B: 99%
[5]; B-A direction
  MDCK-MDR1: % Recov B-A: 99%
[6]; [10]
  EC50: 0.01 to 15 nM
[7]; qPCR
  EC50: 16 to 50 nM

## CN(c1ccc(-c2cc3cccnc3cc2O)nn1)[C@H]1C[C@@H]2CC[C@@H](N2)[C@H]1F [Compound 74B, 6-(6-(((1R,2R,3S,5S)-2-fluoro-8-azabicyclo[3.2.1]octan-3-yl)(methyl)amino)pyridazin-3-yl)quinolin-7-ol]
[1]; [8]
  EC50: 0.01 to 15 nM
[2]; [9]
  EC50: 16 to 50 nM
[3]; A-B direction
  Papp A→B at 120 min, 5 μM: 3 ×10⁻⁶ cm/s
[3]; B-A direction
  Papp B→A at 120 min, 5 μM: 56 ×10⁻⁶ cm/s
[4]; efflux ratio
  efflux ratio at 120 min, 5 μM: 19
[5]; A-B direction
  MDCK-MDR1: % Recov A-B: 77%
[5]; B-A direction
  MDCK-MDR1: % Recov B-A: 90%
[6]; [10]
  EC50: 0.01 to 15 nM
[7]; qPCR
  EC50: 51 to 100 nM

## CN(c1ccc(-c2ccc(-n3ccnn3)cc2O)nn1)[C@@H]1C[C@H]2CCC[C@H](N2)[C@@H]1F [Compound 62A, 2-(6-(((1S,2S,3R,5R)-2-fluoro-9-azabicyclo[3.3.1]nonan-3-yl)(methyl)amino)pyridazin-3-yl)-5-(1H-1,2,3-triazol-1-yl)phenol]
[1]; [8]
  EC50: 16 to 50 nM
[2]; [9]
  EC50: 16 to 50 nM
[3]; A-B direction
  Papp A→B at 120 min, 5 μM: 3.37 ×10⁻⁶ cm/s
[3]; B-A direction
  Papp B→A at 120 min, 5 μM: 61.4 ×10⁻⁶ cm/s
[4]; efflux ratio
  efflux ratio at 120 min, 5 μM: 18
[5]; A-B direction
  MDCK-MDR1: % Recov A-B: 113%
[5]; B-A direction
  MDCK-MDR1: % Recov B-A: 109%
[6]; [10]
  EC50: 0.01 to 15 nM
[7]; qPCR
  EC50: 0.01 to 15 nM

## Cc1cnc(-c2ccc(-c3ccc(N(C)[C@H]4C[C@@H]5CCC[C@@H](N5)[C@H]4F)nn3)c(O)c2)cn1 [Compound 26B, 2-(6-(((1R,2R,3S,5S)-2-fluoro-9-azabicyclo[3.3.1]nonan-3-yl)(methyl)amino)pyridazin-3-yl)-5-(5-methylpyrazin-2-yl)phenol]
[1]; [8]
  EC50: 0.01 to 15 nM
[2]; [9]
  EC50: 51 to 100 nM
[3]; A-B direction
  Papp A→B at 120 min, 5 μM: 2.76 ×10⁻⁶ cm/s
[3]; B-A direction
  Papp B→A at 120 min, 5 μM: 45.1 ×10⁻⁶ cm/s
[4]; efflux ratio
  efflux ratio at 120 min, 5 μM: 16
[5]; A-B direction
  MDCK-MDR1: % Recov A-B: 60%
[5]; B-A direction
  MDCK-MDR1: % Recov B-A: 81%
[6]; [10]
  EC50: 0.01 to 15 nM
[7]; qPCR
  EC50: 51 to 100 nM

## CN(c1ccc(-c2cc(F)c(-n3ccnn3)cc2O)nn1)[C@H]1C[C@@H]2CC[C@@H](N2)[C@H]1F [Compound 52B, 4-fluoro-2-(6-(((1R,2R,3S,5S)-2-fluoro-8-azabicyclo[3.2.1]octan-3-yl)(methyl)amino)pyridazin-3-yl)-5-(1H-1,2,3-triazol-1-yl)phenol]
[1]; [8]
  EC50: 0.01 to 15 nM
[2]; [9]
  EC50: 16 to 50 nM
[3]; A-B direction
  Papp A→B at 120 min, 5 μM: 7.44 ×10⁻⁶ cm/s
[3]; B-A direction
  Papp B→A at 120 min, 5 μM: 54.4 ×10⁻⁶ cm/s
[4]; efflux ratio
  efflux ratio at 120 min, 5 μM: 7
[5]; A-B direction
  MDCK-MDR1: % Recov A-B: 97%
[5]; B-A direction
  MDCK-MDR1: % Recov B-A: 90%
[6]; [10]
  EC50: 0.01 to 15 nM
[7]; qPCR
  EC50: 16 to 50 nM

## CN(c1ccc(-c2cc3cccnc3cc2O)nn1)[C@@H]1C[C@H]2CCC[C@H](N2)[C@@H]1F [Compound 41A, 6-(6-(((1S,2S,3R,5R)-2-fluoro-9-azabicyclo[3.3.1]nonan-3-yl)(methyl)amino)pyridazin-3-yl)quinolin-7-ol]
[1]; [8]
  EC50: 0.01 to 15 nM
[2]; [9]
  EC50: 16 to 50 nM
[3]; A-B direction
  Papp A→B at 120 min, 5 μM: 2 ×10⁻⁶ cm/s
[3]; B-A direction
  Papp B→A at 120 min, 5 μM: 48.1 ×10⁻⁶ cm/s
[4]; efflux ratio
  efflux ratio at 120 min, 5 μM: 24
[5]; A-B direction
  MDCK-MDR1: % Recov A-B: 64%
[5]; B-A direction
  MDCK-MDR1: % Recov B-A: 98%
[6]; [10]
  EC50: 0.01 to 15 nM
[7]; qPCR
  EC50: 51 to 100 nM

## CN(c1ccc(-c2ccc(-c3ccn(C)n3)cc2O)nn1)[C@@H]1C[C@H]2CC[C@H](N2)[C@@H]1F (single isomer, unassigned) [Compound 36A]
[1]; [8]
  EC50: 0.01 to 15 nM
[2]; [9]
  EC50: 16 to 50 nM
[3]; A-B direction
  Papp A→B at 120 min, 5 μM: 3.68 ×10⁻⁶ cm/s
[3]; B-A direction
  Papp B→A at 120 min, 5 μM: 38.6 ×10⁻⁶ cm/s
[4]; efflux ratio
  efflux ratio at 120 min, 5 μM: 10
[5]; A-B direction
  MDCK-MDR1: % Recov A-B: 68%
[5]; B-A direction
  MDCK-MDR1: % Recov B-A: 82%
[6]; [10]
  EC50: 16 to 50 nM
[7]; qPCR
  EC50: 16 to 50 nM

## CN(c1ccc(-c2cc3ccn(C)c(=O)c3cc2O)nn1)[C@H]1C[C@@H]2CC[C@@H](N2)[C@H]1F [Compound 84B, 6-(6-(((1R,2R,3S,5S)-2-fluoro-8-azabicyclo[3.2.1]octan-3-yl)(methyl)amino)pyridazin-3-yl)-7-hydroxy-2-methylisoquinolin-1(2H)-one]
[1]; [8]
  EC50: 0.01 to 15 nM
[2]; [9]
  EC50: 0.01 to 15 nM
[3]; A-B direction
  Papp A→B at 120 min, 5 μM: 1.06 ×10⁻⁶ cm/s
[3]; B-A direction
  Papp B→A at 120 min, 5 μM: 50.9 ×10⁻⁶ cm/s
[4]; efflux ratio
  efflux ratio at 120 min, 5 μM: 48
[5]; A-B direction
  MDCK-MDR1: % Recov A-B: 112%
[5]; B-A direction
  MDCK-MDR1: % Recov B-A: 76%
[6]; [10]
  EC50: 0.01 to 15 nM
[7]; qPCR
  EC50: 0.01 to 15 nM

## CN(c1ccc(-c2cc3cccnc3cc2O)nn1)[C@H]1C[C@@H]2CCC[C@@H](N2)[C@H]1F [Compound 41B, 6-(6-(((1R,2R,3S,5S)-2-fluoro-9-azabicyclo[3.3.1]nonan-3-yl)(methyl)amino)pyridazin-3-yl)quinolin-7-ol]
[1]; [8]
  EC50: 0.01 to 15 nM
[2]; [9]
  EC50: 16 to 50 nM
[3]; A-B direction
  Papp A→B at 120 min, 5 μM: 2.57 ×10⁻⁶ cm/s
[3]; B-A direction
  Papp B→A at 120 min, 5 μM: 36.7 ×10⁻⁶ cm/s
[4]; efflux ratio
  efflux ratio at 120 min, 5 μM: 14
[5]; A-B direction
  MDCK-MDR1: % Recov A-B: 60%
[5]; B-A direction
  MDCK-MDR1: % Recov B-A: 95%
[6]; [10]
  EC50: 0.01 to 15 nM
[7]; qPCR
  EC50: 16 to 50 nM

## CN(c1ccc(-c2ccc(-c3cc[nH]n3)cc2O)nn1)[C@@H]1C[C@H]2CC[C@H](N2)[C@@H]1F (single isomer, unassigned) [Compound 33A]
[1]; [8]
  EC50: 16 to 50 nM
[2]; [9]
  EC50: 51 to 100 nM
[3]; A-B direction
  Papp A→B at 120 min, 5 μM: 1.33 ×10⁻⁶ cm/s
[3]; B-A direction
  Papp B→A at 120 min, 5 μM: 40.7 ×10⁻⁶ cm/s
[4]; efflux ratio
  efflux ratio at 120 min, 5 μM: 31
[5]; A-B direction
  MDCK-MDR1: % Recov A-B: 95%
[5]; B-A direction
  MDCK-MDR1: % Recov B-A: 105%
[6]; [10]
  EC50: 16 to 50 nM
[7]; qPCR
  EC50: 16 to 50 nM

## Cc1nc2cc(O)c(-c3ccc(N(C)[C@H]4C[C@@H]5CC[C@@H](N5)[C@H]4F)nn3)cc2o1 [Compound 117B, 6-(6-(((1R,2R,3S,5S)-2-fluoro-8-azabicyclo[3.2.1]octan-3-yl)(methyl)amino)pyridazin-3-yl)-2-methylbenzo[d]oxazol-5-ol]
[1]; SMA patient fibroblasts (GM03813), 48 hours
  EC50: 0.01 to 15 nM
[2]; SMA patient fibroblasts (GM03813)
  EC50: 16 to 50 nM
[3]; A-B
  Papp A→B at 120 min, 5 μM: 4.32 ×10⁻⁶ cm/s
[3]; B-A
  Papp B→A at 120 min, 5 μM: 45 ×10⁻⁶ cm/s
[4]
  efflux ratio at 120 min, 5 μM: 10
[5]; A-B
  MDCK-MDR1: % Recov A-B: 90%
[5]; B-A
  MDCK-MDR1: % Recov B-A: 86%
[6]; GM04724 (CAG 70/20) Huntington's disease patient lymphoblasts
  EC50: 0.01 to 15 nM
[7]
  EC50: 16 to 50 nM
